Assay results taken from patent US7569586B2, “Compounds having β2 adrenergic receptor agonist and muscarinic receptor antagonist activity” (Theravance, Inc., priority 2004, dated 2009).

Key:
hM3 muscarinic receptor = target: T1, hM3 muscarinic receptor (Homo sapiens, UniProt P20309); assay: Radioligand binding assay for muscarinic receptors (Assay Test Procedure B); details: CHO cell membranes, [3H]-NMS displacement; read-out: Ki value for the M3 muscarinic receptor
T1 construct: expressed in transfected cells; host or cells: CHO cells (membranes)
Description: CHO cell lines stably expressing cloned human hM1, hM2, hM3 and hM4 muscarinic receptor subtypes, respectively, were grown to near confluency in HAM's F-12 media supplemented with 10% FBS and 250 μg/mL Geneticin. The cells were grown in a 5% CO2, 37° C. incubator and lifted with 2 mM EDTA in dPBS. Cells were collected by 5 minute centrifugation at 650×g, and cell pellets were either stored frozen at −80° C. or membranes were prepared immediately for use. For membrane preparation, cell pellets were resuspended in lysis buffer and homogenized with a Polytron PT-2100 tissue disrupter (Kinematica AG; 20 seconds×2 bursts). Crude membranes were centrifuged at 40,000×g for 15 minutes at 4° C. The membrane pellet was then resuspended with re-suspension buffer and homogenized again with the Polytron tissue disrupter. The protein concentration of the membrane suspension was determined by the method described in Lowry et al., 1951, […], 193, 265. All membranes were stored frozen in aliquots at −80° C. or used immediately. Aliquots of prepared hM5 receptor membranes were purchased directly from Perkin Elmer and stored at −80° C. until use.
Radioligand binding assays for cloned human muscarinic receptors were performed in 96-well microtiter plates in a total assay volume of 100 μL. […] Filter plates were rinsed three times with wash buffer (10 mM HEPES) to remove unbound radioactivity. […] The plates were then counted in a PerkinElmer Topcount liquid scintillation counter (PerkinElmer Inc., Wellesley, Mass.). Binding data were analyzed by nonlinear regression analysis with the GraphPad Prism Software package (GraphPad Software, Inc., San Diego, Calif.) using the one-site competition model. Ki values for test compounds were calculated from observed IC50 values and the KD value of the radioligand using the Cheng-Prusoff equation (Cheng Y; Prusoff W H. (1973) Biochemical Pharmacology, 22(23):3099-108). […]

[1] = target: T2, human β2 adrenergic receptor (Homo sapiens, UniProt P07550); assay: Whole-cell cAMP Flashplate assay with lung epithelial cell line BEAS-2B endogenously expressing human β2 adrenergic receptor (Assay Test Procedure E); type: cell-based; details: BEAS-2B cells
Description: For the determination of agonist potencies and efficacies (intrinsic activities) in a cell line expressing endogenous levels of the β2 adrenergic receptor, a human lung epithelial cell line (BEAS-2B) was used (ATCC CRL-9609, American Type Culture Collection, Manassas, Va.) (January B, et al., British Journal of Pharmacology, 1998, 123, 4, 701-11). Cells were grown to 75-90% confluency in complete, serum-free medium (LHC-9 MEDIUM containing Epinephrine and Retinoic Acid, cat # 181-500, Biosource International, Camarillo, Calif.). The day before the assay, medium was switched to LHC-8 (no epinephrine or retinoic acid, cat # 141-500, Biosource International, Camarillo, Calif.). cAMP assays were performed in a radioimmunoassay format using the Flashplate Adenylyl Cyclase Activation Assay System with [^125I]-cAMP (NEN SMP004, PerkinElmer Life Sciences Inc., Boston, Mass.), according to the manufacturers instructions. On the day of the assay, cells were rinsed with PBS, lifted by scraping with 5 mM EDTA in PBS, and counted. Cells were pelleted by centrifugation at 1,000 rpm and re-suspended in stimulation buffer pre-warmed to 37° C. at a final concentration of 600,000 cells/mL. Cells were used at a final concentration of 100,000 to 120,000 cells/well in this assay. […] Plates were sealed, incubated over night at 4° C. and counted the next morning in a Topcount scintillation counter (Packard BioScience Co., Meriden, Conn.). The amount of cAMP produced per mL of reaction was calculated based on the counts observed for samples and cAMP standards, as described in the manufacturer's user manual. Data were analyzed by nonlinear regression analysis with the GraphPad Prism Software package (GraphPad Software, Inc., San Diego, Calif.) using the 4-parameter model for sigmoidal dose-response.
if desired, test compound efficacity (% Eff) was calculated from the ratio of the observed Emax (TOP of the fitted curve) and the maximal response obtained for isoproterenol dose response curve and was expressed as % Eff relative to isoproterenol.

[2] = target: T2, human β2 adrenergic receptor; assay: Radioligand binding assay for human β2 adrenergic receptor (Assay Test Procedure A); design: expressed in transfected cells; host or cells: CHO-K1 cells; details: CHO cell membranes, [3H]-dihydroalprenolol displacement
Description: Chinese hamster ovarian (CHO) cell lines stably expressing cloned human β1, β2 or β3 adrenergic receptors, respectively, were grown to near confluency in Hams F-12 media with 10% FBS in the presence of 500 μg/mL Geneticin. The cell monolayer was lifted with 2 mM EDTA in PBS. Cells were pelleted by centrifugation at 1,000 rpm, and cell pellets were either stored frozen at −80° C. or membranes were prepared immediately for use. For preparation of β1 and β2 receptor expressing membranes, cell pellets were re-suspended in lysis buffer (10 mM HEPES/HCl, 10 mM EDTA, pH 7.4 at 4° C.) and homogenized using a tight-fitting Dounce glass homogenizer (30 strokes) on ice. […] The protein concentration of the membrane suspension was determined by the methods described in Lowry et al., 1951, Journal of Biological Chemistry, 193, 265; and Bradford, Analytical Biochemistry, 1976, 72, 248-54. […]
Binding assays were performed in 96-well microtiter plates in a total assay volume of 100 μL with 10-15 μg of membrane protein containing the human β1, β2 or β3 adrenergic receptors in assay buffer (75 mM Tris/HCl pH 7.4 at 25° C., 12.5 mM MgCl2, 1 mM EDTA, 0.2% BSA). […] Non-specific binding was determined in the presence of 10 μM propranolol. […] Filter plates were washed three times with filtration buffer (75 mM Tris/HCl pH 7.4 at 4° C., 12.5 mM MgCl2, 1 mM EDTA) to remove unbound radioactivity. […]

[3] = target: T2, human β2 adrenergic receptor; assay: Whole-cell cAMP Flashplate assay in CHO cell lines heterologously expressing human β2 adrenergic receptor (Assay Test Procedure C); type: cell-based; design: expressed in transfected cells; host or cells: CHO-K1 cells; details: CHO-K1 cells
Description: cAMP assays were performed in a radioimmunoassay format using the Flashplate Adenylyl Cyclase Activation Assay System with [^125I]-cAMP (NEN SMP004, PerkinElmer Life Sciences Inc., Boston, Mass.), according to the manufacturers instructions. For the determination of P receptor agonist potency (EC50), CHO-K1 cell lines stably expressing cloned human β1, β2 or β3 adrenergic receptors were grown to near confluency in HAM's F-12 media supplemented with 10% FBS and Geneticin (250 μg/mL). Cells were rinsed with PBS and detached in dPBS (Dulbecco's Phosphate Buffered Saline, without CaCl2 and MgCl2) containing 2 mM EDTA or Trypsin-EDTA solution (0.05% trypsin/0.53 mM EDTA). After counting cells in Coulter cell counter, cells were pelleted by centrifugation at 1,000 rpm and re-suspended in stimulation buffer containing IBMX (PerkinElmer Kit) pre-warmed to room temperature to a concentration of 1.6×10^6 to 2.8×10^6 cells/mL. About 60,000 to 80,000 cells per well were used in this assay. Test compounds (10 mM in DMSO) were diluted into PBS containing 0.1% BSA in Beckman Biomek-2000 and tested at 11 different concentrations ranging from 100 μM to 1 pM. Reactions were incubated for 10 min at 37° C. and stopped by adding 100 μL of cold detection buffer containing [^125I]-cAMP (NEN SMP004, PerkinElmer Life Sciences, Boston, Mass.). The amount of cAMP produced (pmol/well) was calculated based on the counts observed for the samples and cAMP standards as described in the manufacturer's user manual. Data were analyzed by nonlinear regression analysis with the GraphPad Prism Software package (GraphPad Software, Inc., San Diego, Calif.) with the sigmoidal equation. The Cheng-Prusoff equation (Cheng Y, and Prusoff W H., Biochemical Pharmacology, 1973, 22, 23, 3099-108) was used to calculate the […].

T2 sequence (P07550 whole entry): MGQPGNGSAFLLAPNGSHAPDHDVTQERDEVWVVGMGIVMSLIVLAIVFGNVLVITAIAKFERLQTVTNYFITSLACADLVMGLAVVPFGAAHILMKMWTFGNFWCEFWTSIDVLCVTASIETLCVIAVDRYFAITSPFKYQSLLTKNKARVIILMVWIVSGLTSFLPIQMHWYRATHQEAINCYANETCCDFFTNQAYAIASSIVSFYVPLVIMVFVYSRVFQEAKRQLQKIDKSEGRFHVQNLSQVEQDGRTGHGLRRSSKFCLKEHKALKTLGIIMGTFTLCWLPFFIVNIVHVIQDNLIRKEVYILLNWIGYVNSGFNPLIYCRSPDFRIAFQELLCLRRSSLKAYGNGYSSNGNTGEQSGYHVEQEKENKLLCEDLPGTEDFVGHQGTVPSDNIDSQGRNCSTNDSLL
T1 sequence (P20309 whole entry): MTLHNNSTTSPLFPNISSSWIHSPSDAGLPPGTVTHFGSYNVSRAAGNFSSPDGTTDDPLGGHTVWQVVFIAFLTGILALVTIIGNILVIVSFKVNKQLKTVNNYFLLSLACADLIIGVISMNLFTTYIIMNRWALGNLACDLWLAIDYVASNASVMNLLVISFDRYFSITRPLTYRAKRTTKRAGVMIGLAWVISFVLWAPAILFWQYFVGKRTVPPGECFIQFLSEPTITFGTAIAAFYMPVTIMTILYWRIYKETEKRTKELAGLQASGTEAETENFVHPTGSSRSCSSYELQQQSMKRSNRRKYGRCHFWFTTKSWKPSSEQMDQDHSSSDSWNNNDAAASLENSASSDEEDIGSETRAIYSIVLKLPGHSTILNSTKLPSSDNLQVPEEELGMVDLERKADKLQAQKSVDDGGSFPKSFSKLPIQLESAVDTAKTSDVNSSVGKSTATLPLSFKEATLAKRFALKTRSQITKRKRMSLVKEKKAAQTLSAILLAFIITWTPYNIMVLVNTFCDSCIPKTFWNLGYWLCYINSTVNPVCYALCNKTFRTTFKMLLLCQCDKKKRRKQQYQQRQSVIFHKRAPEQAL

Row | Structure (SMILES) | Ki (hM3 muscarinic receptor) [nM] | EC50 [1] [nM] | Ki [2] [nM] | EC50 [3] [nM]
1 | O=C(Nc1ccccc1-c1cccs1)OC1CCN(CCCCCCCCCNC[C@H](O)c2ccc(O)c3[nH]c(=O)ccc23)CC1 [Example 1, (2-Thien-2-ylphenyl)carbamic Acid 1-{9-[(R)-2-Hydroxy-2-(8-hydroxy-2-oxo-1,2-dihydroquinolin-5-yl)ethylamino]nonyl}piperidin-4-yl Ester] | < 10 | < 20 | < 10 | < 10
2 | O=C(Nc1ccccc1-c1ccsc1)OC1CCN(CCCCCCCCCNC[C@H](O)c2ccc(O)c3[nH]c(=O)ccc23)CC1 [Example 2, (2-Thien-3-ylphenyl)carbamic Acid 1-{9-[(R)-2-Hydroxy-2-(8-hydroxy-2-oxo-1,2-dihydroquinolin-5-yl)ethylamino]nonyl}piperidin-4-yl Ester] | < 10 | < 20 | < 10 | < 10
3 | O=C(Nc1c(F)cc(F)cc1-c1cccnc1)OC1CCN(CCCCCCCCCNC[C@H](O)c2ccc(O)c3[nH]c(=O)ccc23)CC1 [Example 3, (2,4-Difluoro-6-pyridin-3-ylphenyl)carbamic Acid 1-{9-[(R)-2-Hydroxy-2-(8-hydroxy-2-oxo-1,2-dihydroquinolin-5-yl)ethylamino]nonyl}piperidin-4-yl Ester] | < 150 | < 20 | – | < 10
